What was measured:
[1] = biological target: 5α-reductase (Mus musculus, UniProt Q68FF9); assay: 5α-Reductase Inhibition Test (decrease in absorbance at 340 nm, NADPH/testosterone); type: biochemical; settings: for A: absorbance decrease at 340 nm
Description: • (1) Test drug: Sample of Example 52 • (2) Positive control drug: Finasteride, a product of Merck Sharp & Dohme Limited; Appearance: Film-coated tablets, white after removal of the coating; Specification: 5 mg/tablet; Batch number: 0022050. Storage conditions: light-shielded, airtight, and stored at room temperature. • (3) Drug preparation: The sample of Example 52 was tested at 10 concentrations: 35 mg/mL (solute: the sample of Example 52, solvent: 20% aqueous ethanol solution) was adopted as the initial concentration, and nine 2.5-fold gradient dilutions were made by using 20% aqueous ethanol solution; and five 2-fold gradient dilutions of the positive control finasteride were made by using anhydrous ethanol. • (4) Reagents: Reduced coenzyme II (NADPH), a product of Sigma, Catalog number N7505, Batch number 041939; testosterone (T), a product of Merck, Catalog number T-037; Batch number FE03112002; Tris buffer: Shanghai Yuanye Biotechnology Co., Ltd., Batch number J17HR10516A. • (5) Test instrument: ZDN microplate reader, a product of BioTek.
Mouse liver was obtained by dissection, and was added into a Tris buffer at a ratio of 1:5 for homogenization at 0°C. The homogenized liver was centrifuged at 10000g for 15 minutes, the supernatant was centrifuged at 55000g for another hour, and then the supernatant was placed at 4°C for later use. Reagents and samples were added according to the reaction system. Sample of Example 52 and finasteride sample at each dilution were added 4 times. After incubation at 37°C for 60 minutes, the decrease in absorbance ΔA at 340nm was measured. Inhibition rate (%) = (blank ΔA−sample ΔA)/(blank ΔA) × 100 [formula]
The 5α-reductase reaction system is shown in Table 16: Table 16 Reagent amount for the reaction system (µL)

[2] = system: Malassezia; assay: Malassezia antibacterial test (microbroth method, OD600 after 72 hours); type: cell-based; settings: Ketoconazole 4µg/mL, read-out: Malassezia inhibition rate, positive control
Description: A culture medium and Malassezia were mixed thoroughly by shaking until no sediment was present at the bottom. A sterile syringe was used to pipette 200-800 µL of the bacterial suspension into fresh culture medium and incubate at 30°C in a biochemical incubator. After 2-3 days of incubation, the sample was subcultured.
A sterile malt extract culture medium was transferred into a sterile 50mL centrifuge tube. The sterile malt extract culture medium was centrifuged at 25°C and 3500 rpm for 10 minutes. The supernatant was transferred to another sterile 50mL centrifuge tube for later use.
Each sample was diluted with fresh culture medium to a concentration of 50 mg/mL, 40 mg/mL, 30 mg/mL, 20 mg/mL, 10 mg/mL, or 5 mg/mL.
The culture medium and Malassezia were mixed thoroughly by shaking and transferred to a sterile 50mL centrifuge tube. The mixture was centrifuged at 25°C and 1000 rpm for 30 seconds. The supernatant was transferred to a sterile 50 mL centrifuge tube and centrifuge at 25°C and 3500 rpm for 10 minutes.
A microplate reader was set at a wavelength of 600 nm. […] The OD600 value of the bacterial suspension was detected at 600 nm. […]
The required volume of bacterial suspension was calculated. […]
The sterile 96-well culture plate was placed in a 30°C incubator. After 72 hours of incubation, the absorbance at 600nm was recorded. […]

5α-reductase, sequence (Q68FF9 whole entry): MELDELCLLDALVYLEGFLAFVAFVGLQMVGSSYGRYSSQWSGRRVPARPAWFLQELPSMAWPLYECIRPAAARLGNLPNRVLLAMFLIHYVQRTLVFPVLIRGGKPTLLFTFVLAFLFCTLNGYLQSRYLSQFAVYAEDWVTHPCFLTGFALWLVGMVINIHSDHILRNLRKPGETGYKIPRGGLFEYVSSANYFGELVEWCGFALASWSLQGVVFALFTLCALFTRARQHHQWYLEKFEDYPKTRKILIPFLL

Q: `CC(C)(C)NC(=O)[C@H]1CC[C@H]2[C@@H]3CC[C@H]4NC(=O)C=C[C@]4(C)[C@H]3CC[C@]12C` [Finasteride] was tested. Which inhibition at 0.003 µg/mL ([1]; Finasteride 0.003 µg/mL, read-out: Inhibition rate) did it give?
A: The inhibition at 0.003 µg/mL was 6.12%.

Q: And the inhibition at 0.006 µg/mL ([1]; Finasteride 0.006 µg/mL, read-out: Inhibition rate)?
A: The inhibition at 0.006 µg/mL was 15.4%.

Q: And the inhibition at 0.012 µg/mL ([1]; Finasteride 0.012 µg/mL, read-out: Inhibition rate)?
A: Its inhibition at 0.012 µg/mL is 26.3%.

Q: What about the inhibition at 0.025 µg/mL ([1]; Finasteride 0.025 µg/mL, read-out: Inhibition rate) of the same compound?
A: Its inhibition at 0.025 µg/mL is 39.2%.

Q: What about the inhibition at 0.05 µg/mL ([1]; Finasteride 0.050 µg/mL, read-out: Inhibition rate) of the same compound?
A: The inhibition at 0.05 µg/mL was 63.1%.

Q: What about the A ([1]; Finasteride 0.003 µg/mL) of the same compound?
A: Its A is 0.10.

Q: And the A ([1]; Finasteride 0.012 µg/mL)?
A: The A was 0.08.

Q: And the A ([1]; Finasteride 0.025 µg/mL)?
A: The A was 0.07.

Q: What about the A ([1]; Finasteride 0.050 µg/mL) of the same compound?
A: The A was 0.04.

Q: For `CC(=O)N1CCN(c2ccc(OCC3COC(Cn4ccnc4)(c4ccc(Cl)cc4Cl)O3)cc2)CC1` (stereo not shown) [Ketoconazole], which inhibition at 4 µg/mL [2] is on record?
A: The inhibition at 4 µg/mL was 95 ± 3.59%.
